Source: US6395755B1, “Benzothiophene pharmaceutical compounds” (Eli Lilly and Company, priority 1995, dated 2002)
Read-outs that look alike come from different tables or passages of the source.

Experiments:
[1] = tested on: uterus of ovariectomized (OVX) rats; set-up: species or system Sprague Dawley rats; settings: rat, in vivo, po, 0.1 mg/kg/day
Method: (§1) In the examples illustrating the methods, a post-menopausal model was used in which effects of different treatments upon circulating lipids were determined.
(§2) Seventy-five day old female Sprague Dawley rats (weight range of 200 to 225 g) are obtained from Charles River Laboratories (Portage, Mich.). The animals are either bilaterally ovariectomized (OVX) or exposed to a Sham surgical procedure at Charles River Laboratories, and then shipped after one week. Upon arrival, they are housed in metal hanging cages in groups of 3 or 4 per cage and have ad libitum access to food (calcium content approximately 0.5%) and water for one week. Room temperature is maintained at 22.2° ±1.7° C. with a minimum relative humidity of 40%. The photoperiod in the room is 12 hours light and 12 hours dark.
Dosing Regimen Tissue Collection. After a one week acclimation period (therefore, two weeks post-OVX) daily dosing with test compound is initiated. 17α-ethynyl estradiol or the test compound is given orally, unless otherwise stated, as a suspension in 1% carboxymethylcellulose or dissolved in 20% cyclodextrin. Animals were dosed daily for 4 days. […] The animals are then sacrificed by asphyxiation with CO2, the uterus is removed through a midline incision, and a wet uterine weight is determined.

[2] = tested on: Uterine Eosinophil Peroxidase (EPO); set-up: species or system Sprague Dawley rats; settings: rat, in vivo; for Uterine EPO (V. max): po
Excerpt: as §2
(§3) Dosing Regimen Tissue Collection. After a one week acclimation period (therefore, two weeks post-OVX) daily dosing with test compound is initiated. 17α-ethynyl estradiol or the test compound is given orally, unless otherwise stated, as a suspension in 1% carboxymethylcellulose or dissolved in 20% cyclodextrin. Animals were dosed daily for 4 days. Following the dosing regimen, animals are weighed and anesthetized with a ketamine: Xylazine (2:1, V:V) mixture and a blood sample is collected by cardiac puncture. The animals are then sacrificed by asphyxiation with CO2, the uterus is removed through a midline incision, and a wet uterine weight is determined.
Uterine Eosinophil Peroxidase (EPO) Assay. Uteri are kept at 4° C. until time of enzymatic analysis. The uteri are then homogenized in 50 volumes of 50 mM Tris buffer (pH−8.0) containing 0.005% Triton X-100. Upon addition of 0.01% hydrogen peroxide and 10 mM O-phenylenediamine (final concentrations) in Tris buffer, increase in absorbance is monitored for one minute at 450 nm. The presence of eosonophils in the uterus is an indication of estrogenic activity of a compound. The maximal velocity of a 15 second interval is determined over the initial, linear portion of the reaction curve.

Serum cholesterol = Serum cholesterol in ovariectomized rats (post-menopausal model); assay type: in vivo, Sprague Dawley rats; settings: oral; for Serum Cholesterol (% decrease vs. OVX): daily for 4 days
Method: as §1, §2, §3
Cholesterol Analysis. Blood samples are allowed to clot at room temperature for 2 hours, and serum is obtained following centrifugation for 10 minutes at 3000 rpm. Serum cholesterol is determined using a Boehringer Mannheim Diagnostics high performance cholesterol assay. Briefly the cholesterol is oxidized to cholest-4-en-3-one and hydrogen peroxide. The hydrogen peroxide is then reacted with phenol and 4-aminophenazone in the presence of peroxidase to produce a p-quinone imine dye, which is read spectrophotemetrically at 500 nm. Cholesterol concentration is then calculated against a standard curve. The entire assay is automated using a Biomek Automated Workstation.

[3] = tested on: femur density of ovariectomized rats; assay: Osteoporosis Test Procedure (35 day OVX rat, femur density); assay type: in vivo; settings: oral in 20% hydroxypropyl β-cyclodextrin, daily for 35 days
Method: Following the General Preparation Procedure, infra, the rats are treated daily for 35 days (6 rats per treatment group) and sacrificed by carbon dioxide asphyxiation on the 36th day. The 35 day time period is sufficient to allow maximal reduction in bone density, measured as described herein. At the time of sacrifice, the uteri are removed, dissected free of extraneous tissue, and the fluid contents are expelled before determination of wet weight in order to confirm estrogen deficiency associated with complete ovariectomy. […] The uteri are then placed in 10% neutral buffered formalin to allow for subsequent histological analysis. The right femurs are excised and digitilized x-rays generated and analyzed by an image analysis program (NIH image) at the distal metaphysis. The proximal aspect of the tibiae from these animals are also scanned by quantitative computed tomography. In accordance with the above procedures, compounds of the present invention and ethynyl estradiol (EE2) in 20% hydroxypropyl β-cyclodextrin are orally administered to test animals.

| Compound | Uterine EPO (V. max) ([2]; 0.1 mg/kg) | Uterine EPO (V. max) ([2]; 0.01 mg/kg) | Uterine EPO (V. max) ([2]; 1 mg/kg) | Uterine EPO (V. max) ([2]; 5 mg/kg) | Effect on uterine weight compared to ovariectomized animals (in words) [1] | Eosinophil infiltration into the uterus (stromal layer), in words [2] | Effect on serum cholesterol compared to ovariectomized controls (in words) (Serum cholesterol; OVX rats, EE2 at 0.1 mg/kg/day) | Serum Cholesterol (% decrease vs. OVX) (Serum cholesterol; dose 0.1 mg/kg) [%] | Prevention of loss of femur density / bone loss after ovariectomy [3] | Serum Cholesterol (% decrease vs. OVX) (Serum cholesterol; dose 0.01 mg/kg) [%] | Serum Cholesterol (% decrease vs. OVX) (Serum cholesterol; dose 1.0 mg/kg) [%] | Serum Cholesterol (% decrease vs. OVX) (Serum cholesterol; dose 5.0 mg/kg) [%] |
| --- | --- | --- | --- | --- | --- | --- | --- | --- | --- | --- | --- | --- |
| C#C[C@]1(O)CC[C@H]2[C@@H]3CCc4cc(O)ccc4[C@H]3CC[C@@]21C [EE2, 17α-ethynyl estradiol, reference compound] | 189.6 | – | – | – | substantially greater than the uterine weight of ovariectomized test animals | substantial, expected increase in eosinophil infiltration | caused a decrease in serum cholesterol | 84.8 | prevented this loss | – | – | – |
| Oc1ccc(-c2sc3cc(O)ccc3c2C(O)(c2ccccc2)c2ccc(OCCN3CCCCC3)cc2)cc1 (stereo not drawn) [Example 8] | 3.6 | 4.2 | 4.5 | 35.1 | – | – | – | −3.1 | – | −9.0 | 14.0 | 56.9 |

More lines, main results first:

| Uterine EPO (V. max) ([2]; 0.1 mg/kg) | Uterine EPO (V. max) ([2]; 0.01 mg/kg) | Uterine EPO (V. max) ([2]; 1 mg/kg) | Uterine EPO (V. max) ([2]; 5 mg/kg) | Compound | Effect on uterine weight compared to ovariectomized animals (in words) [1] | Eosinophil infiltration into the uterus (stromal layer), in words [2] | Effect on serum cholesterol compared to ovariectomized controls (in words) (Serum cholesterol; OVX rats, EE2 at 0.1 mg/kg/day) | Serum Cholesterol (% decrease vs. OVX) (Serum cholesterol; dose 0.1 mg/kg) [%] | Prevention of loss of femur density / bone loss after ovariectomy [3] | Serum Cholesterol (% decrease vs. OVX) (Serum cholesterol; dose 0.01 mg/kg) [%] | Serum Cholesterol (% decrease vs. OVX) (Serum cholesterol; dose 1.0 mg/kg) [%] | Serum Cholesterol (% decrease vs. OVX) (Serum cholesterol; dose 5.0 mg/kg) [%] |
| --- | --- | --- | --- | --- | --- | --- | --- | --- | --- | --- | --- | --- |
| 5.1 | 4.2 | 7.8 | 5.7 | CC(O)(c1ccc(OCCN2CCCCC2)cc1)c1c(-c2ccc(O)cc2)sc2cc(O)ccc12 (stereo not drawn) [Example 2] | – | – | – | 19.4 | – | −10.2 | 50.7 | 53.9 |
| 3.6 | 4.5 | 5.4 | 3.9 | CC(c1ccc(OCCN2CCCCC2)cc1)c1c(-c2ccc(O)cc2)sc2cc(O)ccc12 (stereo not drawn) [Example 4] | – | – | – | 10.4 | – | −26.5 | 43.9 | 35.2 |
| 5.4 | 3.9 | 4.5 | – | O=C(c1ccc(OCCN2CCCCC2)cc1)c1c(-c2ccc(O)cc2)sc2cc(O)ccc12 [Raloxifene, reference compound] | – | – | – | 30.4 | – | 12.0 | 60.6 | – |
